Measurements: patent US12194080B2, “Methods for identification, assessment, prevention, and treatment of metabolic disorders using PM20D1 and N-lipidated amino acids” (Dana-Farber Cancer Institute, Inc., priority 2015, dated 2025)
“Also recorded” adds a separate entry of the source.

Key:
[1] = test system: Diet induced obese (DIO) mice; assay: Chronic daily i.p. administration of N-acyl amino acids to DIO mice (body weight, food intake, body composition, GTT); format: in vivo, mouse; settings: chronic treatment, C18:1-Phe 30 or 50 mg/kg/day, C20:4-Gly 15 mg/kg/day, i.p.
[2] = test system: Diet induced obese (DIO) mice; assay: Indirect calorimetry (CLAMS) of high fat diet/DIO mice treated with N-acyl amino acids; format: in vivo, mouse
Protocol: Animal experiments were performed according to procedures approved by the Beth Israel Deaconess Medical Center IACUC. Mice were maintained in 12 h light-dark cycles at 22° C. and fed a standard irradiated rodent chow diet. All experiments on wild-type mice were performed with male C57BL/6 mice purchased from Jackson Laboratories, except for the AAV experiments, which were performed with male C57BL/6 mice from Charles River. UCP1-KO (stock #017476) and 16-20 week DIO mice (stock #380050) were obtained from Jackson Laboratories. For AAV injection experiments, mice were gently warmed using a 250 W clear infrared heat lamp, immobilized, and injected via tail vein with 10^10 virus/mouse (diluted in saline) in a total volume of 100 μl/mouse. Where indicated, mice were placed on high-fat diet (60% fat, Research Diets). For cold exposure experiments, mice were group housed and placed at 4° C. for the indicated times. For the preparation of C18:1-Phe for in vivo injections, compounds were dissolved in 18:1:1 v/v/v saline:Kolliphor® EL (Sigma Aldrich):DMSO and sonicated until homogeneous. Mice were administered compounds at 5 μl/g body weight at the indicated doses. For all injection experiments, mice were mock injected with saline daily for 3 days prior to the start of the experiments. For glucose tolerance tests (GTTs), mice received their final dose of compound the day prior to the assay and were then fasted overnight. Glucose was administered at 1.5 g/kg.
Energy expenditure, O2 consumption, CO2 production, respiratory exchange ratio, total locomotor activity, and food intake measurements were made with a 16-cage Columbus Instruments Oxymax Comprehensive Lab Animal Monitoring System (CLAMS) at ambient room temperature (21-23° C.). Mice were acclimated for one day in metabolic cages prior to data collection. Whole-body composition was assessed with an EchoMRI™ 3-in-1 on conscious mice.

mouse PM20D1 = molecular target: T1, mouse PM20D1 (Mus musculus, UniProt Q8C165); assay: In vitro PM20D1-catalyzed N-acyl amino acid hydrolysis; format: biochemical; settings: N-acyl amide substrate 100 μM
T1 construct: Full-length mouse Pm20d1 cDNA (GE Dharmacon) was subcloned with an in-frame C-terminal 6× His and FLAG® tag; made in house; host or cells: 293A (HEK293A) cells stably infected with retrovirus
T1 sequence (Q8C165 25-503): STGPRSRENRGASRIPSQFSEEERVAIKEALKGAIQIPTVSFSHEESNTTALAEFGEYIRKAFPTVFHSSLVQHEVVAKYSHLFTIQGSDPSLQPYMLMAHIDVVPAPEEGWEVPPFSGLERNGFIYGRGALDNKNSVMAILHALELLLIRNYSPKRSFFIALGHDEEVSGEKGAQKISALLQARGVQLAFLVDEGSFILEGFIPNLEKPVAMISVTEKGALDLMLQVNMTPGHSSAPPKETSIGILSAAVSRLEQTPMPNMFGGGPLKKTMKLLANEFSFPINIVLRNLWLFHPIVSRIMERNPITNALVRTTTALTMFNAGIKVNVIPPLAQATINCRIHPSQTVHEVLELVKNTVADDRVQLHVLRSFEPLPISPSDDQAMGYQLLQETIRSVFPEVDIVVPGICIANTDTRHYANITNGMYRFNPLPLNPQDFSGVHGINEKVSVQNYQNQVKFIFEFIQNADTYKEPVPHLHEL
Protocol: The concentrated media was centrifuged to remove debris (600×g, 10 min, 4° C.) and the supernatant containing PM20D1-flag was decanted into a new tube. PM20D1-Flag was immunoaffinity purified overnight at 4° C. from the concentrated media using magnetic Flag-M2 beads (Sigma Aldrich). The beads were collected, washed three times in PBS, eluted with 3× Flag peptide ([…] in PBS, Sigma Aldrich), aliquoted, and stored at −80° C. For the purification of human PM20D1-flag, hPM20D1-flag plasmid (Origene) was transiently transfected into 293A cells. After two days, the media was changed, harvested 24 h later, concentrated, and purified exactly as described above.
In vitro PM20D1-catalyzed synthesis of N-acyl amino acids was measured by incubating purified PM20D1 protein with oleate (1.5 mM) and phenylalanine (0.1 mM) in PBS (to 100 μl final volume) at 37° C. for 1.5 hrs. In vitro PM20D1-catalyzed N-acyl amino acid hydrolysis was measured by incubating purified PM20D1 protein with the indicated N-acyl amino acid (0.1 mM) in PBS (to 100 μl final volume) at 37° C. for 1.5 hrs. Reactions were terminated by placing the vials at −80° C. and the products generated in vitro were analyzed by mass spectroscopy (MS).
Briefly, frozen serum (30 μl) for polar metabolomic analyses were extracted in 160 μl of 1:1 acetonitrile/methanol with inclusion of internal standard D3, ^15N-serine (1 nmol). Activity assays (100 μl) were extracted in 400 μl 1:1 acetonitrile/methanol. Following 30 s of thorough vortexing and 1 min of bath sonication, the polar metabolite fraction (supernatant) was isolated by centrifugation at 13,000×g for 10 min. Ten μl of this supernatant was analyzed by SRM-based targeted LC-MS/MS, or untargeted LC-MS.
For separation of polar metabolites, normal-phase chromatography was performed with a […] column (50 mm×4.60 mm, Phenomenex). Mobile phases were as follows: Buffer A, acetonitrile; Buffer B, 95:5 water/acetonitrile with 0.1% formic acid or 0.2% ammonium hydroxide with 50 mM ammonium acetate for positive and negative ionization mode, respectively. The flow rate for each run started at 0.2 ml/min for 2 min, followed by a gradient starting at 0% B and increasing linearly to 100% B over the course of 15 min with a flow rate of 0.7 ml/min, followed by an isocratic gradient of 100% B for 10 min at 0.7 ml/min before equilibrating for 5 min at 0% B with a flow rate of 0.7 ml/min. MS analysis was performed with an electrospray ionization (ESI) source on an Agilent 6430 QQQ LC—MS/MS. The capillary voltage was set to 3.5 kV, and the fragmentor voltage was set to 100 V. The drying gas temperature was 325° C., the drying gas flow rate was 10 l/min, and the nebulizer pressure was 45 psi. For polar targeted and untargeted metabolomic analysis, representative metabolites were quantified by SRM of the transition from precursor to product ions (corresponding to amino acid fragment) at associated collision energies. Several representative fragmentation ions are as follows: C18:1-Ala, 352>88; C18:1-Gly, 338>74; C18:1-Phe, 428>164; C18:1-Leu/Ile, 394>130; C20:4-Phe, 450>164; C20:4-Leu/Ile, 416>130. Untargeted LC-MS was performed by scanning a mass range of m/z 50-1200, and data were exported as mzdata files and uploaded to XCMSOnline (xcmsserver.nutr.berkeley.edu) to identify metabolites that were differentially changed. For targeted metabolomics analysis, metabolites were quantified by integrating the area under the peak and were normalized to internal standard values corresponding to 1 nmol D3, ^15N-serine.

[3] = daily i.p.: C18:1-Leu 25, C18:1-Phe 30, C20:4-Gly 15 mg/kg/day

## CCCCCCCC/C=C\CCCCCCCC(=O)N[C@@H](Cc1ccccc1)C(=O)O [C18:1-Phe, Oleoyl-L-phenylalanine]
[1]
  food intake: reduced food intake
[2]; 16-week high fat diet mice, 10 mg/kg daily, days 5 and 6
  movement: similar
[2]; [3]
  VO2: significantly augmented
  movement: no effects
Mouse PM20D1
  substrate of the PM20D1 hydrolysis reaction: substrates; also recorded: liberated free oleate
